Reference: patent US20240025913A1, “TERTIARY CARBOXAMIDE COMPOUNDS” (Vivace Therapeutics, Inc., priority 2020, published 2024)

What follows are compounds tested on 8×TBD luciferase reporter in HEK293T cells (assay: YAP Reporter Assay (firefly luciferase)). Settings: Homo sapiens, HEK-293T; HEK293T cells stably transfected with 8×TBD luciferase reporter and pRLTK; 24-hr incubation; starting from 3 μM, 1:3 dilution, 10 points.
Assay type: cell-based
Protocol: HEK293T cells stably transfected with 8×TBD luciferase reporter and pRLTK in 384-well plates were treated with the test compounds, starting from 3 μM (final concentration in assay plate), 1:3 dilution, and 10 points in quadruplicates. Post 24-hr incubation with compounds at 37° C. and 5% CO2, cells were lysed and 8×TBD-driven firefly luciferase and control TK-driven renilla luciferase activities were measured using Promega Dual-Luciferase Reporter Assay System.
Reagents: The reagents used for this study are: DMEM: Invitrogen #11960077, Dual-Glo Luciferase Assay System: Promega-E2980, Puromycin Dihydrochloride: Invitrogen-A1113803, 384-well plate: PerkinElmer-6007480, L-GLUTAMINE: Invitrogen-25030164, Hygromycin B: Invitrogen-10687010, and Penicillin-Streptomycin: Merk-TMS-AB2-C
Media: The media used for this assay were: Culture Medium: DMEM+1 ug/mL puromycin+200 ug/mL hygromycin (with 10% FBS+1 mM L-glutamine); and Assay Medium: DMEM (with 10% FBS+1 mM L-glutamine+1×P/S).
Cell Plating: The appropriate media was warmed at 37° C. by water bath: Culture Medium, Assay Medium, 1*D-PBS, 0.05% trypsin-EDTA. The cells were trypsinized after removing all media, then washed with 1*sterile D-PBS and then with 2 ml 0.05% trypsin-EDTA. The cells were then incubated at RT for one minute. Then 10 ml/75 cm2 flask Assay Medium was added to each flask. Using a 10 ml pipette, the cells were then gently resuspended in the media, until the clumps completely disappeared. The cells were then transferred into 50 ml centrifuge tubes and were centrifuged at 800 rpm for 5 mins. The medium was removed and the cells were resuspended with Assay Medium. An aliquot of cells was used to count the cell density (cells/ml). The cell suspension was then diluted with Assay Medium to a concentration of 6×10^4 cells/ml. 50 ul cells suspension was then plated to 384-well plate (PerkinElmer-6007480), 3×10^3 cells/well and the cells were incubated in an incubator at 37° C., 5% CO2.
Compound Treatment: In the afternoon (incubation of the plate with 3-4 hrs), the test compounds were added by Echo, starting from 3 uM (final concentration in the assay plate), 1:3 dilution, 10 points, quadruplicates. The plate was placed at 37° C., 5% CO2 incubator for 24 hrs.
Detection: The Dual-Glo Luciferase Reagent was prepared by transferring the contents of one bottle of Dual-Glo Luciferase Buffer to one bottle of Dual-Glo Luciferase Substrate to create the Dual-G Luciferase Reagent. Mixing was performed by inversion until the substrate was thoroughly dissolved. After mixing, the reagent was aliquoted into 15 ml tubes. In the afternoon (24 hrs post compound treatment), the DMEM+ medium in the 384 well plates were aspirated by Microplate Washer.
Measuring firefly luciferase activity: 20 ul Dual-Glo Luciferase Reagent was added to the 384-well plates. The plates were protected from light to prevent interference with the assay. The plates were shaken for […] followed centrifuging plates at 1000 rpm for 30 seconds. After waiting at least 10 minutes, the firefly luminescence was measured by Envision.
Measuring renilla luciferase activity: 20 ul Stop-Glo Reagent was added to the 384-well plates. The plates were shaken for […] and then centrifuged at 1000 rpm for 30 seconds. After waiting at least 10 minutes, the renilla luminescence was measured by Envision.
Compound IC50 and maximum inhibition on the firefly luciferase and renilla luciferase activities were reported separately.
`CC(=O)NC1CN(C(=O)c2ccc3c(Oc4ccc(C(F)(F)F)cc4)cccc3c2)C1` [Compound 1, N-(1-(5-(4-(Trifluoromethyl)phenoxy)-2-naphthoyl)azetidin-3-yl)acetamide] gave an IC50 of no more than 100 nM.
`NC1CN(C(=O)c2ccc3c(Oc4ccc(C(F)(F)F)cc4)cccc3c2)C1` [Compound 1A, (3-aminoazetidin-1-yl)(5-(4-(trifluoromethyl)phenoxy)naphthalen-2-yl)methanone] showed an IC50 of no more than 100 nM.
With `O=C(c1ccc2c(Oc3ccc(C(F)(F)F)cc3)cccc2c1)N1CCNCC1` [Compound 2, Piperazin-1-yl(5-(4-(trifluoromethyl)phenoxy)naphthalen-2-yl)methanone] the IC50 was 1000 to 3000 nM.
`NC1CCN(C(=O)c2ccc3c(Oc4ccc(C(F)(F)F)cc4)cccc3c2)C1` (stereo not shown) [Compound 3, (3-Aminopyrrolidin-1-yl)(5-(4-(trifluoromethyl)phenoxy)naphthalen-2-yl)methanone] showed an IC50 of 100 to 1000 nM.
In the case of `NC1CCN(C(=O)c2ccc3c(Oc4ccc(C(F)(F)F)cc4)cccc3c2)CC1` [Compound 4, (4-Aminopiperidin-1-yl)(5-(4-(trifluoromethyl)phenoxy)naphthalen-2-yl)methanone], the IC50 is reported as no more than 100 nM.
Compound `NCC1CN(C(=O)c2ccc3c(Oc4ccc(C(F)(F)F)cc4)cccc3c2)C1` [Compound 7, (3-(Aminomethyl)azetidin-1-yl)(5-(4-(trifluoromethyl)phenoxy)naphthalen-2-yl)methanone] has an IC50 of no more than 100 nM.
`NCC1CCN(C(=O)c2ccc3c(Oc4ccc(C(F)(F)F)cc4)cccc3c2)C1` (stereo not shown) [Compound 8, (3-(Aminomethyl)pyrrolidin-1-yl)(5-(4-(trifluoromethyl)phenoxy)naphthalen-2-yl)methanone] showed an IC50 of no more than 100 nM.
`NCC1CCCN(C(=O)c2ccc3c(Oc4ccc(C(F)(F)F)cc4)cccc3c2)C1` (stereo not shown) [Compound 9, (3-(Aminomethyl)piperidin-1-yl)(5-(4-(trifluoromethyl)phenoxy)naphthalen-2-yl)methanone] showed an IC50 of 100 to 1000 nM.
`O=C(c1ccc2c(Oc3ccc(C(F)(F)F)cc3)cccc2c1)N1CC2(CNC2)C1` [Compound 11, (2,6-Diazaspiro[3.3]heptan-2-yl)(5-(4-(trifluoromethyl)phenoxy)naphthalen-2-yl)methanone] showed an IC50 of 100 to 1000 nM.
Work on `CN(C)C1CN(C(=O)c2ccc3c(Oc4ccc(C(F)(F)F)cc4)cccc3c2)C1` [Compound 12, (3-(Dimethylamino)azetidin-1-yl)(5-(4-(trifluoromethyl)phenoxy)naphthalen-2-yl)methanone] yielded an IC50 of 1000 to 3000 nM.
In the case of `O=C(c1ccc2c(Oc3ccc(C(F)(F)F)cc3)cccc2c1)N1CC(CO)C1` [Compound 13, (3-(Hydroxymethyl)azetidin-1-yl)(5-(4-(trifluoromethyl)phenoxy)naphthalen-2-yl)methanone], the IC50 is reported as no more than 100 nM.
With `CN(C)CC1CN(C(=O)c2ccc3c(Oc4ccc(C(F)(F)F)cc4)cccc3c2)C1` [Compound 14, (3-((Dimethylamino)methyl)azetidin-1-yl)(5-(4-(trifluoromethyl)phenoxy)naphthalen-2-yl)methanone] the IC50 was 100 to 1000 nM.
For `O=C(c1ccc2c(Oc3ccc(C(F)(F)F)cc3)cccc2c1)N1CC(O)C1` [Compound 15, (3-Hydroxyazetidin-1-yl)(5-(4-(trifluoromethyl)phenoxy)naphthalen-2-yl)methanone], the IC50 was no more than 100 nM.
`CC(=O)NCC1CN(C(=O)c2ccc3c(Oc4ccc(C(F)(F)F)cc4)cccc3c2)C1` [Compound 16, N-((1-(5-(4-(trifluoromethyl)phenoxy)-2-naphthoyl)azetidin-3-yl)methyl)acetamide] gave an IC50 of no more than 100 nM.
For `CS(=O)(=O)NCC1CN(C(=O)c2ccc3c(Oc4ccc(C(F)(F)F)cc4)cccc3c2)C1` [Compound 17, N-((1-(5-(4-(trifluoromethyl)phenoxy)-2-naphthoyl)azetidin-3-yl)methyl)methanesulfonamide], the IC50 was no more than 100 nM.
For `CN1CC2(C1)CN(C(=O)c1ccc3c(Oc4ccc(C(F)(F)F)cc4)cccc3c1)C2` [Compound 18, (6-Methyl-2,6-diazaspiro[3.3]heptan-2-yl)(5-(4-(trifluoromethyl)phenoxy)naphthalen-2-yl)methanone], the IC50 was 100 to 1000 nM.
Work on `CCN1CC2(C1)CN(C(=O)c1ccc3c(Oc4ccc(C(F)(F)F)cc4)cccc3c1)C2` [Compound 19, (6-Ethyl-2,6-diazaspiro[3.3]heptan-2-yl)(5-(4-(trifluoromethyl)phenoxy)naphthalen-2-yl)methanone] yielded an IC50 of 100 to 1000 nM.
For `CC(C)N1CC2(CN(C(=O)c3ccc4c(Oc5ccc(C(F)(F)F)cc5)cccc4c3)C2)C1` [Compound 20, (6-Isopropyl-2,6-diazaspiro[3.3]heptan-2-yl)(5-(4-(trifluoromethyl)phenoxy)naphthalen-2-yl)methanone], the IC50 was 100 to 1000 nM.
`O=C(c1ccc2c(Oc3ccc(C(F)(F)F)cc3)cccc2c1)N1CC2(CN(CCO)C2)C1` [Compound 21, (6-(2-Hydroxyethyl)-2,6-diazaspiro[3.3]heptan-2-yl)(5-(4-(trifluoromethyl)phenoxy)naphthalen-2-yl)methanone] gave an IC50 of 100 to 1000 nM.
Work on `COCCN1CC2(C1)CN(C(=O)c1ccc3c(Oc4ccc(C(F)(F)F)cc4)cccc3c1)C2` [Compound 22, (6-(2-Methoxyethyl)-2,6-diazaspiro[3.3]heptan-2-yl)(5-(4-(trifluoromethyl)phenoxy)naphthalen-2-yl)methanone] yielded an IC50 of 100 to 1000 nM.
In the case of `O=C(c1ccc2c(Oc3ccc(C(F)(F)F)cc3)cccc2c1)N1CC2(CN(CCF)C2)C1` [Compound 23, (6-(2-Fluoroethyl)-2,6-diazaspiro[3.3]heptan-2-yl)(5-(4-(trifluoromethyl)phenoxy)naphthalen-2-yl)methanone], the IC50 is reported as 100 to 1000 nM.
Work on `O=C(c1ccc2c(Oc3ccc(C(F)(F)F)cc3)cccc2c1)N1CC2(CN(CC(F)F)C2)C1` [Compound 24, (6-(2,2-Difluoroethyl)-2,6-diazaspiro[3.3]heptan-2-yl)(5-(4-(trifluoromethyl)phenoxy)naphthalen-2-yl)methanone] yielded an IC50 of 100 to 1000 nM.
Compound `CNCC1CN(C(=O)c2ccc3c(Oc4ccc(C(F)(F)F)cc4)cccc3c2)C1` [Compound 25, (3-((Methylamino)methyl)azetidin-1-yl)(5-(4-(trifluoromethyl)phenoxy)naphthalen-2-yl)methanone] has an IC50 of 100 to 1000 nM.
With `CNC1CN(C(=O)c2ccc3c(Oc4ccc(C(F)(F)F)cc4)cccc3c2)C1` [Compound 26, (3-(Methylamino)azetidin-1-yl)(5-(4-(trifluoromethyl)phenoxy)naphthalen-2-yl)methanone] the IC50 was 100 to 1000 nM.
With `CCNC1CN(C(=O)c2ccc3c(Oc4ccc(C(F)(F)F)cc4)cccc3c2)C1` [Compound 27, (3-(Ethylamino)azetidin-1-yl)(5-(4-(trifluoromethyl)phenoxy)naphthalen-2-yl)methanone] the IC50 was 100 to 1000 nM.
For `CC(C)NC1CN(C(=O)c2ccc3c(Oc4ccc(C(F)(F)F)cc4)cccc3c2)C1` [Compound 28, (3-(Isopropylamino)azetidin-1-yl)(5-(4-(trifluoromethyl)phenoxy)naphthalen-2-yl)methanone], the IC50 was no more than 100 nM.
In the case of `COCCNC1CN(C(=O)c2ccc3c(Oc4ccc(C(F)(F)F)cc4)cccc3c2)C1` [Compound 29, (3-((2-Methoxyethyl)amino)azetidin-1-yl)(5-(4-(trifluoromethyl)phenoxy)naphthalen-2-yl)methanone], the IC50 is reported as 100 to 1000 nM.
`O=C(c1ccc2c(Oc3ccc(C(F)(F)F)cc3)cccc2c1)N1CC(NCCO)C1` [Compound 30, (3-((2-Hydroxyethyl)amino)azetidin-1-yl)(5-(4-(trifluoromethyl)phenoxy)naphthalen-2-yl)methanone] showed an IC50 of no more than 100 nM.
